Results reported in article PMC4042160, “In silico, in vitro and cellular analysis with a kinome-wide inhibitor panel correlates cellular LRRK2 dephosphorylation to inhibitor activity on LRRK2” (Frontiers in Molecular Neuroscience, 2014).
Structures can show the parent of a compound that is named as a salt.

Key:
[1] = molecular target: T1, GST-tagged truncated LRRK2 containing residues 970 to 2527 (Homo sapiens, UniProt Q5S007); assay: In vitro LRRKtide peptide-substrate kinase assay, single dose testing (10 μM); type: biochemical; conditions: for % LRRKtide phosphorylation relative to solvent: LRRKtide assay @ 10 μM inhibitor, GST-LRRK2 970-2527, 10 μM ATP, mean, N = 3, solvent control = 100%
T1 construct: GST-tagged truncated LRRK2 containing residues 970 to 2527 (Life Technologies); purchased Life Technologies

[2] = molecular target: T2, LRRK2 phospho-Ser935 (Homo sapiens, UniProt Q5S007); assay: Cellular LRRK2 phosphoserine 935 dephosphorylation spotblot assay in SH-SY5Y cells stably expressing 3xFlag-LRRK2; type: cell-based; conditions: for Phosphorylation level relative to solvent (%) (cellular pS935 assay): @ 5 μM for 2 h, SH-SY5Y stably expressing LRRK2, pS935/total LRRK2
T2 construct: expressed in transfected cells
T2 sequence (Q5S007 whole entry): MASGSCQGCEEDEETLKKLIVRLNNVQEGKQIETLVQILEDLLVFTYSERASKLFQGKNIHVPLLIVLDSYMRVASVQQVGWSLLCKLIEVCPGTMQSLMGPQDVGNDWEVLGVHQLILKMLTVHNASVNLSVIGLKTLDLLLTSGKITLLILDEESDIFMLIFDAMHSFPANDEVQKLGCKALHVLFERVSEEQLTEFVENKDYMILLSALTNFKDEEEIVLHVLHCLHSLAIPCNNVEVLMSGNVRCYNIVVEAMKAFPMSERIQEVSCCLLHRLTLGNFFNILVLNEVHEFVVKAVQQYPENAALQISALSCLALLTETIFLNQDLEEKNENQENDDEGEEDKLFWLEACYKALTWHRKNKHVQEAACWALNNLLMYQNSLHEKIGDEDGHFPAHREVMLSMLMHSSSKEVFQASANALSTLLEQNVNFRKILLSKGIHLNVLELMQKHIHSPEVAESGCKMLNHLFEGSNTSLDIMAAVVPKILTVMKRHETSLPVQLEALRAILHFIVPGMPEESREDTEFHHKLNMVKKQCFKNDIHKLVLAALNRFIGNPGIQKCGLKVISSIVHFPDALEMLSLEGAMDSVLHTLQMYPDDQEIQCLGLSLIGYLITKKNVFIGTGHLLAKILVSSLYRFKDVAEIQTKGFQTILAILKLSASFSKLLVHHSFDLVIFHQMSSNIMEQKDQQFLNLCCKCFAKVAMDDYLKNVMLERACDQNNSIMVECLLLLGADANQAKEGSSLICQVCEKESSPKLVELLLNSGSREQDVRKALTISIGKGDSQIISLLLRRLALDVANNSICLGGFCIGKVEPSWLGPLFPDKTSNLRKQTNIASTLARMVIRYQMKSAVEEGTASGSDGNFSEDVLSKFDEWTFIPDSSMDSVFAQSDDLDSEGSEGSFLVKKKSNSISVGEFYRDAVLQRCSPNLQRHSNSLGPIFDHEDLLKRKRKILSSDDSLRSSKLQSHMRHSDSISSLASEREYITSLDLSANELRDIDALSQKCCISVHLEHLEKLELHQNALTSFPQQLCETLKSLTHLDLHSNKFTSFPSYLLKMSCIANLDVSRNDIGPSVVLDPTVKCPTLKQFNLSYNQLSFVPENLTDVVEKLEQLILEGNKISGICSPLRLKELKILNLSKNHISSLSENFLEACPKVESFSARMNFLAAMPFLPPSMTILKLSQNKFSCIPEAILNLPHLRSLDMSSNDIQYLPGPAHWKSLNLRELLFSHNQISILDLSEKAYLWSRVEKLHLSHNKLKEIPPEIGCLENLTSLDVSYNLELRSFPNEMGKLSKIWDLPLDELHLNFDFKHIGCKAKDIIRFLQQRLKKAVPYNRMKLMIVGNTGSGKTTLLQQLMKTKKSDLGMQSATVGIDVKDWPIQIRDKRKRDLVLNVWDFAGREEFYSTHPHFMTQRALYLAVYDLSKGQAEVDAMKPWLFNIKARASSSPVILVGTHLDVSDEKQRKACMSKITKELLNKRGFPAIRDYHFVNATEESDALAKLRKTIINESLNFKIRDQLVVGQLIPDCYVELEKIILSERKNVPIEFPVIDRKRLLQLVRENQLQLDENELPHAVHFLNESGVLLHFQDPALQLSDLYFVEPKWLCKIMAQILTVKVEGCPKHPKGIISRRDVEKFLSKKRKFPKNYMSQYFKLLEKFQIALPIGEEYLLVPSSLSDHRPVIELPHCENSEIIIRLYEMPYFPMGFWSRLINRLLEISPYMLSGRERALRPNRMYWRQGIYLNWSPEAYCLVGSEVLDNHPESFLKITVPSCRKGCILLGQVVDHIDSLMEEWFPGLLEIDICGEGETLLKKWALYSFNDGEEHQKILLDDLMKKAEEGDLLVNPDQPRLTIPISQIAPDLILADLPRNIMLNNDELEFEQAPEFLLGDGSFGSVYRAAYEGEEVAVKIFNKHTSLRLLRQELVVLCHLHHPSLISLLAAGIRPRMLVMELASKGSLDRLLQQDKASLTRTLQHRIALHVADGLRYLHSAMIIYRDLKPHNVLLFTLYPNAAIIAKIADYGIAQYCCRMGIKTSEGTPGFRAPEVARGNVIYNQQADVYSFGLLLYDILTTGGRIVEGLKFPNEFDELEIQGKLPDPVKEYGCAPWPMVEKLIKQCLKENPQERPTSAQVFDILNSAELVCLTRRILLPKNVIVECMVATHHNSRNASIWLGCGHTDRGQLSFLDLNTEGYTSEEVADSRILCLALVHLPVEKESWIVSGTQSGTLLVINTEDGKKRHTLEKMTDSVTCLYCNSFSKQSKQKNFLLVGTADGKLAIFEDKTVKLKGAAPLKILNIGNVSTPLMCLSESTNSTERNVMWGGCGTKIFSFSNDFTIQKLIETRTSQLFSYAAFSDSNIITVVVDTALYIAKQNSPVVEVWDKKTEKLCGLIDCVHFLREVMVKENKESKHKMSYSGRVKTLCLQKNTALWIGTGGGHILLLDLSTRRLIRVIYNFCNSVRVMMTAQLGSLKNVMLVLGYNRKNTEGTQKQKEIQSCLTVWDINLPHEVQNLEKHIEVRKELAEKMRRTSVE

T1 sequence (Q5S007 970-2527): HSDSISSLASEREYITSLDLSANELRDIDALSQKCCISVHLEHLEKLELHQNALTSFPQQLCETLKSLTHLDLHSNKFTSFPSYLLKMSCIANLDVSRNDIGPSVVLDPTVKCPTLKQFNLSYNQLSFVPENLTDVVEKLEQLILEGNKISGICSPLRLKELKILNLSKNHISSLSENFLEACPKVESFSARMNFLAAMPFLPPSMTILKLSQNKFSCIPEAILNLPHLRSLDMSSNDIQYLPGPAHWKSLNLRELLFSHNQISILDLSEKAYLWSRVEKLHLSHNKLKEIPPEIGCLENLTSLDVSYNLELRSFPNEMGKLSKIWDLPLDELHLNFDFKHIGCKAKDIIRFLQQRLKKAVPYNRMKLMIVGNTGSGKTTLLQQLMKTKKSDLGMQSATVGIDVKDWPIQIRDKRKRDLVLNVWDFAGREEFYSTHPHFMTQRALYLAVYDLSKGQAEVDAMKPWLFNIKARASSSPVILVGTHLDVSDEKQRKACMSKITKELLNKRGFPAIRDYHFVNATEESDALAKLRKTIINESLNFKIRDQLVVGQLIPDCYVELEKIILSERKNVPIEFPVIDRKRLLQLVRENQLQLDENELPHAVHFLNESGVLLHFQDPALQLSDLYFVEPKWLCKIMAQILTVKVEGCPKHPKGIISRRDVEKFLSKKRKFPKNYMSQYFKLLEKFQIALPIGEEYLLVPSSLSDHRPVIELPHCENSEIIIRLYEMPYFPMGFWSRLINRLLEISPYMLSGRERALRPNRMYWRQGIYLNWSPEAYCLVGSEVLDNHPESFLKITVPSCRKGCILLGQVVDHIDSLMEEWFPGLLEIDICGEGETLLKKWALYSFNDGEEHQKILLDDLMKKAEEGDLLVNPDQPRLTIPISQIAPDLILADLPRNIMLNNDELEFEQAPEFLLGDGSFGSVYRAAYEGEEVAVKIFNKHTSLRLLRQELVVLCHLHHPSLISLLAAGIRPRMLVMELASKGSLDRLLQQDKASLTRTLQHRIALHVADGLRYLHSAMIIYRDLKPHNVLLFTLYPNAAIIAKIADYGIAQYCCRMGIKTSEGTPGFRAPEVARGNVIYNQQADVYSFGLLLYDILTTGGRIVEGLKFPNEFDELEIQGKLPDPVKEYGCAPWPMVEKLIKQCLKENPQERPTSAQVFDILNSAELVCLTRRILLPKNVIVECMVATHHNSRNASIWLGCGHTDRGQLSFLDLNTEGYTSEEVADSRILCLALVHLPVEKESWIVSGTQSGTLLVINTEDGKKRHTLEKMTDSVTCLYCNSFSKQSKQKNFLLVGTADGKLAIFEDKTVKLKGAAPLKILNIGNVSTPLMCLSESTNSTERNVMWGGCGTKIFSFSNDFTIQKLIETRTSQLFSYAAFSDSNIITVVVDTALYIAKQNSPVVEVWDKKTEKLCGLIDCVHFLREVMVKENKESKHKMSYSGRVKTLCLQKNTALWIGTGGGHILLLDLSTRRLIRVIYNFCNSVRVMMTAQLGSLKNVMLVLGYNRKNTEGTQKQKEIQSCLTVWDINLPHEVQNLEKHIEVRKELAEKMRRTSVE

Row | Structure (SMILES) | % LRRKtide phosphorylation relative to solvent [1] | Phosphorylation level relative to solvent (%) (cellular pS935 assay) [2] | activity on LRRK2 kinase activity in vitro (in words) ([1]; no activity at 10 μM) | dephosphorylation of LRRK2 (Ser935) ([2]; 5 μM, 2 h, SH-SY5Y)
1 | COc1ccc(C(=O)Nc2sc3c(c2C(N)=O)CCCC3)cc1OC [Flt-3 inhibitor] | 38.91% | 63.54% |  | 
2 | Cc1cc(Nc2nc(-c3ccccc3)nc3ccccc23)n[nH]1 [GSK-3 inhibitor XIII] | 3.34% | 73.51% |  | 
3 | Ic1cccc(CSc2nnc(-c3ccncc3)o2)c1 [GSK-3b inhibitor II] | 100.90% | 84.51% |  | 
4 | Cn1sc(=O)n(Cc2ccccc2)c1=O [GSK-3b inhibitor I] | 106.35% | 95.90% |  | 
5 | COc1ccc(CNC(=O)Nc2ncc([N+](=O)[O-])s2)cc1 [GSK-3b inhibitor VIII] | 128.15% | 115.21% |  | 
6 | Nc1cccc(-c2cc3c(Oc4cccc(O)c4)ncnc3[nH]2)c1 [GSK-3b inhibitor XII, TWS119, TWS119] | 13.54% | 122.47% |  | 
7 | O=C1NC(=O)C(c2cn(CCCO)c3ncccc23)=C1c1cnccn1 [GSK-3b inhibitor XI] | 32.34% | 87.77% |  | 
8 | Cn1c2ccccc2c2c3c(c4c5ccccc5n(CCC#N)c4c21)CNC3=O [Gö 6976] | 5.79% | 56.41% |  | 
9 | COc1ccc2c(c1)c(C1=C(c3c[nH]c4ccccc34)C(=O)NC1=O)cn2CCCN(C)C [Gö 6983] | 3.04% | 70.11% |  | 
10 | Cl.Cl.O=S(=O)(NCCNC/C=C/c1ccc(Br)cc1)c1cccc2cnccc12 [H-89, Dihydrochloride] | 45.29% | 155.11% |  | 
11 | O=S(=O)(c1cccc2cnccc12)N1CCCNCC1 [HA 1077, Dihydrochloride Fasudil, Fasudil] | 79.40% | 89.37% |  | 
12 | CO[C@H]1[C@@H](OC)C[C@H](C)[C@@H](OC)C2=CC(=O)C=C(NC(=O)/C(C)=C/C=C\[C@H](OC)[C@@H](OC(N)=O)/C(C)=C/[C@@H]1C)C2=O [Herbimycin A, Streptomyces sp., Herbimycin A] | 103.97% | 92.79% |  | 
13 | COc1ccc(Cl)cc1NC(=O)Nc1cc(C)nc2ccccc12 [IGF-1R inhibitor II] | 93.23% | 80.40% |  | 
14 | NC(=O)Nc1sc(-c2ccc(F)cc2)cc1C(N)=O [IKK-2 inhibitor IV] | 5.13% | 108.38% |  | 
15 | O=C(Nc1nc2ccccc2n1CCN1CCOCC1)c1cccc([N+](=O)[O-])c1 [IRAK-1/4 inhibitor] | 55.78% | 71.83% |  | 
16 | O=C1NC(=O)c2c1c1c3ccccc3[nH]c1n1cncc21 [Isogranulatimide] | 4.64% | 77.38% |  | 
17 | CC(C)N(CCC(=O)c1ccc2ccccc2c1)Cc1ccccc1 [JAK3 inhibitor IV] | 90.96% | 63.71% |  | 
18 | CC(C)(C)c1nc2c3cc[nH]c(=O)c3c3cc(F)ccc3c2[nH]1 [JAK inhibitor I] | 3.20% | 47.17% |  | 
19 | O=C1c2ccccc2-c2n[nH]c3cccc1c23 [JNK inhibitor II] | 2.32% | 81.52% |  | 
20 | N#Cc1c(NC(=O)c2cccc3ccccc23)sc2c1CCCC2 [JNK inhibitor IX] | 61.45% | 42.05% |  | 
21 | CCOc1nc(NC(=O)Cc2cc(OC)ccc2OC)cc(N)c1C#N [JNK inhibitor VIII] | 105.45% | 93.08% |  | 
22 | N#CC(c1ccnc(NCCc2cccnc2)n1)c1nc2ccccc2s1 (centres unmarked) [JNK inhibitor V] | 37.61% | 71.85% |  | 
23 | COC(=O)[C@@]1(O)C[C@H]2O[C@]1(C)n1c3ccccc3c3c4c(c5c6ccccc6n2c5c31)C(=O)NC4 [K-252a, Nocardiopsis sp., K-252a] | 1.13% | 72.18% |  | 
24 | CCCNC(=O)Nc1ccc(Oc2ncnc3cc(OC)c(OC)cc23)cc1Cl [KRN63] | 68.07% | 62.48% |  | 
25 | O=C1Cc2c([nH]c3ccc(Br)cc23)-c2ccccc2N1 [Kenpaullone] | 47.16% | 94.10% |  | 
26 | COc1cccc(-c2cc(=O)c3ccccc3o2)c1N [PD98059] | 92.53% | 106.55% |  | 
27 | CCCC(=O)Oc1ccc2[nH]c(C(=O)c3cc4ccccc4[nH]3)cc2c1 [PDGF receptor tyrosine kinase inhibitor II] | 93.77% | 65.41% |  | 
28 | COc1cc2c(cc1OC)-c1[nH]nc(Nc3cccc(F)c3)c1C2 [PDGF receptor tyrosine kinase inhibitor IV] | 23.12% | 57.30% |  | 
29 | O=C1Nc2ccc(Cl)cc2/C1=C/c1cc(Cl)c(O)c(Cl)c1 [PKR inhibitor, negative control] | 1.07% | 72.69% |  | 

Continued, values first:

Row | % LRRKtide phosphorylation relative to solvent [1] | Phosphorylation level relative to solvent (%) (cellular pS935 assay) [2] | activity on LRRK2 kinase activity in vitro (in words) ([1]; no activity at 10 μM) | dephosphorylation of LRRK2 (Ser935) ([2]; 5 μM, 2 h, SH-SY5Y) | Structure (SMILES)
30 | 17.88% | 107.46% |  |  | Cn1nc2c3c(cccc31)C(=O)c1ccccc1-2 [JNK inhibitor, negative control]
31 | 17.20% | 84.73% |  |  | CN([C@@H](Cc1ccc(OS(=O)(=O)c2cccc3cnccc23)cc1)C(=O)N1CCN(c2ccccc2)CC1)S(=O)(=O)c1cccc2cnccc12 [KN-62]
32 | 120.59% | 102.70% |  |  | COc1ccc(S(=O)(=O)N(CCO)c2ccccc2CN(C)C/C=C/c2ccc(Cl)cc2)cc1 [KN-93]
33 | 90.73% | 74.17% |  |  | O=c1cc(N2CCOCC2)oc2c(-c3ccccc3)cccc12 [LY 294002]
34 | 107.82% | 47.60% | inactive | ~ 50% | O=c1cc(N2CCNCC2)oc2c(-c3ccccc3)cccc12 [LY 303511]
35 | 15.36% | 61.54% |  |  | Nc1ncnc2c1c(-c1ccc(Oc3ccccc3)cc1)cn2C1CCCC1 [Lck inhibitor]
36 | 61.26% | 117.92% |  |  | N#C/C(=C(/N)Sc1ccc(N)cc1)c1ccccc1C(F)(F)F [MEK 1/2 inhibitor]
37 | 21.13% | 108.79% |  |  | O=C1C(Cl)=C(N2C(=O)CCC2=O)C(=O)c2ccccc21 [MEK inhibitor II]
38 | 124.71% | 100.55% |  |  | N#C/C(=C(/N)SC1C=CC=CC1)c1cccc(C(O)c2ccncc2)c1 (centres unmarked) [MEK inhibitor I]
39 | 123.21% | 60.73% |  |  | O=C(CCCc1ccc(-c2ccccc2F)cc1)Nc1ccc(O)cc1 [MK2a inhibitor]
40 | 12.59% | 70.32% |  |  | Nc1ncnc2n[nH]c(Nc3ccc(F)cc3)c12 [MNK1 inhibitor]
41 | 6.06% | 80.85% |  |  | CNc1cc2c(Nc3cccc(Br)c3)ncnc2cn1 [PD 158780]
42 | 34.30% | 77.68% |  |  | COc1cc2nccc(Oc3ccc(NC(=S)NC(=O)c4ccccc4C)cc3)c2cc1OC [PDGF RTK inhibitor]
43 | 62.51% | 79.50% |  |  | O=C1NC(=O)/C(=C/c2ccc3nccnc3c2)S1 [PI 3-Kg inhibitor]
44 | 88.58% | 71.34% |  |  | Oc1cccc(-c2nc(N3CCOCC3)c3oc4ncccc4c3n2)c1 [PI-103]
45 | 3.56% | 86.12% |  |  | O=C1NC(=O)C(c2cn(CCCn3ccnc3)c3ccccc23)=C1Nc1ccccc1 [PKCb inhibitor]
46 | 67.41% | 56.68% |  |  | O=C1NC(=O)c2cc(Nc3ccc(F)cc3)c(Nc3ccc(F)cc3)cc21 [PKCbII/EGFR inhibitor]
47 | 44.14% | 68.59% |  |  | CC(C)(C)n1nc(Cc2cccc3ccccc23)c2c(N)ncnc21 [PP1 analog II, 1NM-PP1, 1NM-PP1]
48 | 68.38% | 84.67% |  |  | Nc1ncnc2c1cnn2-c1ccccc1 [PP3]
